Assay results: patent US9814758B2, “Inhibitors of apoptosis and uses thereof” (CENTRE NATIONAL DE LA RECHERCHE SCIENTIFIQUE-CNRS, priority 2010, dated 2017)
Entries after “also recorded” stand apart in the source; their conditions may differ. No end group written: not given here.

Legend:
primary cardiomyocytes = test: STS-induced DNA fragmentation (Cell Death detection ELISA PLUS) in primary cardiomyocytes; type: cell-based, mouse; conditions: for ability to decrease cell apoptosis / protect the cells: against STS; for reduction of DNA fragmentation: peptide given together with staurosporine, 1 μM, related to STS-treated cells (=100%), FIG. 5B
Experimental: FIG. 5: In vitro evaluation of the anti-apoptotic activity of CPPs and CPP-conjugates. Workflow and quantitation of DNA fragmentation in (A) C2C12 cells, (B) primary cardiomyocytes, (C) H9c2 cells and (D) NG108-15 cells. Data were normalized to 100% STS. Data shown are the means±SEM, with n≧5. Cells were seeded in 24-well plates and grown overnight. The next day, the cells were incubated with STS alone or with STS+1 μM peptide (in OPTI-MEM) (OPTI-MEM® is a modification of Eagle's Minimum Essential Media, buffered with HEPES and sodium bicarbonate, and supplemented with hypoxanthine, thymidine, sodium pyruvate, L-glutamine, trace elements, and growth factors) (STS concentration and incubation time for each cells are given in the figure). Thereafter, solutions were removed, replaced by complete medium and further incubated for 40 h. Following the regeneration phase, the cells were lyzed and DNA fragmentation was detected according to manufacturer's instructions (Cell Death detection ELISA^PLUS kit—Roche Diagnostics).
FIG. 6: Anti-apoptotic activity of variants of the Tat-DAXXp sequence on primary cardiomyocytes. As described in the caption of FIG. 5, the different analogues of the DAXXp sequence (see Table 2) were assessed for anti-apoptotic properties against STS (Cell Death detection ELISA^PLUS kit—Roche Diagnostics) (A-B). None of the analogues were able to protect the primary cardiomyocytes—a fact which confirms that the 16mer DAXXp has the optimal length and sequence for highest cardioprotective effect.
FIG. 7: Comparison of the murine/rat DAXXp with the human DAXXp sequence in terms of anti-apoptotic activity on C2C12 cells, primary cardiomyocytes, and H9c2. The murine DAXXp sequence conjugated to Tat (Tat-mDAXXp—SEQ ID NO: 61) which is identical to the rat DAXXp sequence (see FIG. 1B), was compared to the human construct (Tat-DAXXp) in terms of anti-apoptotic properties against STS (Cell Death detection ELISA^PLUS kit—Roche Diagnostics). The C2C12 cells and the primary cardiomyocytes used were from mice and the H9c2 cells from rat.
FIG. 9: Comparison of FADDp constructs with Tat-DAXXp in terms of anti-apoptotic activity in primary cardiomyocytes and in H9c2 cells. Quantification of DNA normalized to 100% STS. Data shown are the means±SEM, with n≧5. Cells were seeded in 24-well plates and grown overnight. The next day, the cells were incubated with STS alone or with STS+1 μM peptide (in OPTI-MEM®) (OPTI-MEM® is a modification of Eagle's Minimum Essential Media, buffered with HEPES and sodium bicarbonate, and supplemented with hypoxanthine, thymidine, sodium pyruvate, L-glutamine, trace elements, and growth factors) (STS concentration is given in the figure and incubation time is given in FIG. 5). Thereafter, solutions were removed, replaced by complete medium and further incubated for 40 hours. Following the regeneration phase, the cells were lyzed and DNA fragmentation was detected according to manufacturer's instructions (Cell Death detection ELISA^PLUS kit—Roche Diagnostics).
FIG. 10: Comparison of Tat-DAXXp and Tat-FADDp15 alone and in combination in primary cardiomyocytes (A) and in H9c2 cells (B).
Thereafter, the capacity of these peptides to inhibit apoptosis induced by staurosporine was evaluated. Apoptosis was determined using the Cell Death detection ELISA^PLUS kit (Roche) measuring the DNA fragmentation.
In most publications, anti-apoptotic peptides currently available in the art are administrated 3-4 hours prior to apoptosis induction, which is poorly relevant to a clinical application. For that reason, the protocol used in the present study included administration of the peptides together with the staurosporine. […] This was not observed with CPP alone or with the Tat-scrDAXXp or Tat-ncDAXXp negative controls. […] To better compare the results, the DNA fragmentation (described by the enrichment factor) is related to the staurosporine-treated cells (=100%).

[1] = biological target: T1, His-tagged intracellular region of Fas receptor (Homo sapiens, UniProt P25445); test: SPOT peptide array, enzyme-linked blot with His-tagged Fas; type: binding; conditions: Fas 10 μg/ml, anti-His/anti-mouse-HRP
T1 construct: His-tagged intracellular region of Fas receptor [10 μg/ml]; purchased Sigma
T1 sequence (P25445 191-335 limits assumed): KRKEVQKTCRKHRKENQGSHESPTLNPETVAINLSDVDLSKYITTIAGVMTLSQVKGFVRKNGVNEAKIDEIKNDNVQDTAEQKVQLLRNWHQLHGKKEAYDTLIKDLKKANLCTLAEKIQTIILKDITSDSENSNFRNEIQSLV
Experimental: FIG. 1: Determination of the DAXX epitope by SPOT synthesis. (A) The amino acid sequence of DAXX was dissected in overlapping peptide arrays (pepscan; 15 mer peptides with a shift of 3 amino acids) and analyzed in enzyme-linked blot. […] Incubation conditions: His-tagged intracellular region of Fas receptor [10 μg/ml]; antibodies: anti-His-(mouse) (Sigma H1029; 1:6,000)/anti-mouse-HRP (Calbiochem 401207; 1:2,000), exposure time: 1 minute. (B) Alignment of the human DAXX sequence comprising the 16-mer KKSRKEKKQTGSGPLG (=DAXXp of SEQ ID NO: 5) with the DAXX sequences of other species (mouse, rat, dog (CANFA) and green monkey (CHLAE)).
FIG. 2: Determination of the optimal length of the DAXX epitope (=DAXXp) by SPOT synthesis. (A) The DAXXp-211 and DAXXp-209 peptides (of SEQ ID NO: 2 and SEQ ID NO: 3, respectively) were successively shortened by one amino acid residue at the N-terminus, at the C-terminus and both at the N- and the C-termini, and analyzed using enzyme-linked blot. […] Incubation conditions: His-tagged intracellular region of Fas receptor [10 μg/ml]; antibodies: anti-His-(mouse) (Sigma H1029; 1:6,000)/anti-mouse-HRP (Calbiochem 401207; 1:2,000), exposure time: 1 minute. (B) Alignment of both peptide sequences DAXXp-211 and DAXXp-209; corresponding to the brightest spots, to determine the optimal DAXX peptide sequence.
FIG. 8: Determination of FADDp15 and its anti-apoptotic effect in cardiomyocytes. (A) The protein sequences of FADD were dissected in overlapping peptide arrays (pepscan; 15 mer peptides with a shift of 3 amino acids) and analyzed using enzyme-linked blot. […] (B) The peptide sequence of FADDp-11 (=FADDp15=SEQ ID NO: 9) was successively shortened by one amino acid residue at the C-terminus, the N-terminus, or at both the C-terminus and the N-terminus, and analyzed using enzyme-linked blot. […] The shortest FADD epitope (a 9-mer with sequence KRKLERVQS (=FADDp=SEQ ID NO: 12)) corresponded to spot No. 24. Incubation conditions: His-tagged intracellular region of Fas receptor [10 μg/ml]; antibodies: anti-His-(mouse) (Sigma H1029; 1:6,000)/anti-mouse-HRP (Calbiochem 401207; 1:2,000), exposure time: 1 minute.
The peptides were synthesized on N-modified CAPE-membranes (Bhargava et al, Mol. Recognit, 2002, 15: 145) and prepared by a MultiPep SPOT-robot (INTAVIS Bioanalytical Instruments AG, Cologne, Germany). Array design was performed with the aid of the in-house software LISA 1.71. The synthesis started with spot definition using a standard protocol [Frank, Tetrahedron, 1992, 48: 9217), followed by the coupling of a solution of Fmoc-cysteine-(Trt)-Opfp (0.3M) in N-methylpyrolidone (NMP) and Fmoc-alanine-Opfp (double coupling, 15 min reaction each). After Fmoc cleavage with piperidine in DMF (20%), 4-hydroxymethylphenoxyacetic acid (HMPA) dissolved in dimethylformamide (DMF, 0.6M solution) and activated with EEDQ (1.1 equiv) was added, and samples were directly spotted on the membrane (4× coupling, 15 min reaction each). The membrane was acetylated with acetic anhydride in DMF (2%), washed with DMF (5×3 min), ethanol (2×3 min), and diethyl ether (2×3 min), and finally air dried. Solutions of Fmoc-amino acid-OH (0.4M) activated with 1,1′-carbonyldiimidazole (CDI, 3 equiv) in DMF were spotted on the membrane (4× coupling, 15 min reaction time each). Proline, tyrosine, and glutamine were activated with 1,1′-carbonyldi(1,2,4-triazole) (CDT). The Fmoc group was removed from the spots, and the peptide sequences were completed using the standard SPOT synthesis protocol (Frank, Tetrahedron, 1992, 48: 9217) followed by a N-terminal tag with β-alanine.
The primary sequence of the DAXX protein (SEQ ID NO: 1) was dissected in overlapping 15 mer peptides (3 amino acids shift) and all the peptides (243 peptides) were synthesized on cellulose membrane by SPOT synthesis as described above. The peptide library was incubated with the His-tagged intra-cellular region of the Fas receptor (Sigma). […]

[2] = system: C57Bl6 mice, myocardial ischemia-reperfusion; test: Myocardial ischemia-reperfusion IR60' (40 min ischemia, 60 min reperfusion); type: in vivo, mouse; conditions: IR60'; data not shown
Experimental: FIG. 11: In vivo experimental protocol. C57Bl6 mice underwent a surgical protocol of myocardial ischemia-reperfusion (IR). The black box represents the period of ischemia to which the mice were submitted. Infarct size or cell death measurements were performed at the end of surgery for each protocol (indicated by ↑). IR60′: 40 minutes of Ischemia, 60 minutes of Reperfusion. IR24h: 40 minutes Ischemia and 24 hours Reperfusion.
FIG. 12: Cardioprotective effects of Tat-DAXXp (1 mg/kg—IV) in mice subjected to IR60′. Infarct size (in % of area at risk) and internucleosomal DNA fragmentation determined by ELISA were quantified in mice subjected to IR60′ and treated with Tat, Tat-DAXXp or Tat-scrDAXXp (1 mg/kg) as well as with DAXXp (10 mg/kg) (intravenous injection (IV) 5 minutes before reperfusion). Means±SEM were plotted for (A): Area at risk/LV mass (left ventricle), (B): Infarct size (in % of area at risk) and (C): (I/NI ratio) corresponding to the ratio of soluble nucleosome in the ischemic portion versus the non-ischemic portion of LV tissues. Statistical analysis was performed using One-way ANOVA with Neuman-Keuls post test for multiple comparisons (GraphPad Prism software). P<0.05, P<0.01 and P<0.001 versus Tat-DAXXp were noted *, **, and *** respectively. P=ns (not significant) for P>0.05.
FIG. 13: Dose response for Tat-DAXXp and DAXXp in mice subjected to IR60′. Infarct size (in % of area at risk) and internucleosomal DNA fragmentation determined by ELISA were quantified in mice subjected to IR60′ and treated with Tat (1 mg/kg), Tat-DAXXp (0.1, 1 and 10 mg/kg) or DAXXp (0.1, 1 and 10 mg/kg) injected intravenously 5 minutes before reperfusion. Means±SEM were plotted for (A): Area at risk/LV mass (left ventricle), (B): Infarct size (in % of area at risk) and (C): (I/NI ratio) corresponding to the ratio of soluble nucleosome in the ischemic versus the non-ischemic portion of LV tissues.
In a second step, the cardioprotective effects of DAXXp were evaluated in an in vivo model of myocardial ischemia-reperfusion. Acute myocardial ischemia and reperfusion were performed in C57Bl6 mice subjected to a surgical model of reversible coronary occlusion. Male mice (22-28 g) were anesthetized and ventilated via a tracheal intubation using a Harvard rodent respirator. Body temperature was maintained between 36.8° C. and 37.0° C. via a thermo-regulated surgical table. The chest was opened by left lateral thoracotomy and a reversible coronary artery snare occluder was placed around the left coronary artery. Mice were randomly allocated to two different surgical protocols of myocardial ischemia-reperfusion (FIG. 11). At the end of reperfusion, the artery was re-occluded and phtalocyanine blue dye was injected into the left ventricle cavity and allowed to perfuse the non-ischemic portions of the myocardium. To determine the effect of DAXXp on myocardial infarct size, peptides were administered intravenously (caudal vein) 5 minutes before reperfusion during the surgical protocol of ischemia-reperfusion. The control groups were treated with Tat or Pip2b peptide (for CPP alone). The dose of 1 mg/kg was chosen (μmolar range) and dose responses for 0.1 and 10 mg/kg were also tested.
At the end of reperfusion, mice were re-anaesthetized, the coronary ligature definitively tightened, the blue dye injected and the harvested left ventricles were dedicated to infarct size (TTC method, Schwartz et al, J Thromb. Thromb., 2000; 10: 181-187) or DNA fragmentation measurements (Cell death detection ELISA^PLUS kit, Roche Diagnostics) in order to investigate the cardioprotective effects against ischemia-reperfusion injuries.

DAXXp-14: fragment of the DAXX protein, amino acid sequence set forth in SEQ ID NO: 6 (SRKEKKQTGSGPLG; listed as Homo sapiens)
ability to decrease cell apoptosis / protect the cells (primary cardiomyocytes): only DAXXp is capable of decreasing cell apoptosis
interaction with the Fas receptor / signal intensity of the spot [1]: interact with the Fas receptor

GRKKRRQRRRPPQ-AKLYVYINELCTVLK-NH2 [Tat-ncDAXXp]
reduction of DNA fragmentation (primary cardiomyocytes): not observed

GRKKRRQRRRPPQ-KKGRKQSGESLGTPKK-NH2 (GRKKRRQRRRPPQKKGRKQSGESLGTPKK-NH2) [Tat-scrDAXXp, negative control; scrambled version of DAXXp conjugated to Tat]
reduction of DNA fragmentation (primary cardiomyocytes): not observed
cardioprotection (infarct size, DNA fragmentation) [2]: not observed

KRKLERVQS (listed as Homo sapiens) [FADDp]
ability to decrease cell apoptosis / protect the cells (primary cardiomyocytes): decrease cell apoptosis
interaction with the Fas receptor / signal intensity of the spot [1]: interact with the Fas receptor

KSRKEKKQTGSGPLG (listed as Homo sapiens) [DAXXp-15]
ability to decrease cell apoptosis / protect the cells (primary cardiomyocytes): only DAXXp is capable of decreasing cell apoptosis
interaction with the Fas receptor / signal intensity of the spot [1]: interact with the Fas receptor
interaction with the Fas receptor / signal intensity of the spot ([1]; listed as Spot No. 211): highest signal intensity

VGKRKLERVQSGLDL (listed as Homo sapiens) [FADDp15]
ability to decrease cell apoptosis / protect the cells (primary cardiomyocytes): decrease cell apoptosis
interaction with the Fas receptor / signal intensity of the spot [1]: higher signal intensity; also recorded: interact with the Fas receptor
